In patent publication US20020156115A1, “Insecticidal and acaricidal composition, and methods of using the same” (AGRO-KANESHO CO., LTD., priority 1999, published 2002):

How the values were obtained:
Assay type in all cases: in vivo
[1] = system: two-spotted red spiders (Tetranychus telarius); assay: Acaricidal effect on two-spotted red spiders, imago-killing rate, 500 ppm leaf immersion; conditions: female imagoes on green bean leaf, leaf immersion about 5 seconds, concentration 500 ppm, fifth day after treatment, 25° C.
Method: (§1) Acaricidal Effect on Larvae of Two-Spotted Red Spiders (Tetranychus telarius): A stem of green bean seedling having only one primary left was placed in a test tube (capacity: 50 ml) containing water. 15 female imagoes of two-spotted red spiders were put on each leaf. One day after, the leaf having the two-spotted red spiders was immersed (about 5 seconds) in the present insecticide diluted with water, which had been prepared according to the Preparation Example, (concentration: 500 ppm, repetition: twice). They were kept in a constant-temperature room at 25° C. On the fifth day after the treatment, the female imagoes on the leaf of the green bean seedling were observed. The imago-killing rate (%) was determined on the basis of the results of the observation to obtain the results shown in Table 6.

[2] = system: eggs of two-spotted red spiders (Tetranychus telarius); assay: Acaricidal effect on eggs of two-spotted red spiders, ovicidal rate, 500 ppm spray; conditions: eggs on green bean leaf disc; spray 3.5 ml; concentration 500 ppm; 8 days after treatment
Method: Acaricidal Effect on Eggs of Two-Spotted Red Spiders (Tetranychus telarius) 5 female imagoes of two-spotted red spiders were released on a green been leaf disc (diameter: 3 cm). Then, the imagoes were left to lay eggs on the leaf disc for 20 hours and then removed therefrom. The present acaricide which had been prepared according to Preparation Example 1 was diluted with water to a predetermined concentration. 3.5 ml of the preparation thus obtained was sprayed with a rotary spraying column (Mizuho Rika) over the disc (concentration: 500 ppm, repetition: twice). 8 days after the treatment, the number of unhatched eggs was counted to determine the ovicidal rate (%).

[3] = system: diamond backmoth (Plutella xylostera); assay: Insecticidal effect on larvae of diamond backmoth (cabbage leaf dip); conditions: 500 ppm; cabbage leaf immersed 1 minute; third-instar larvae; fourth day; 25° C.
Method: Insecticidal Effect on Larvae of Diamond Backmoth (Plutella xylostera) The present insecticide prepared according to the Preparation Example was diluted with water. A piece (diameter: 6 cm) of a cabbage leaf was immersed in the diluted insecticide for 1 minute. After air drying, the piece was placed in a plastic cup (inner diameter: 7 cm). 5 third-instar larvae of diamond backmoth (Plutella xylostera) were put in the cup (1 concentration, repetition: twice). The cup was kept in a constant temperature room at 25° C. On the fourth day, the survival rate and degree of writhing of the larvae were examined. The writhing larvae were each counted to be ½.

[4] = system: two-spotted red spiders (Tetranychus telarius); assay: Acaricidal effect of a low concentration (12.5 ppm) on two-spotted red spiders; conditions: leaf immersion, female imagoes, fifth day after treatment, 25° C.
Method: as §1, with “A” for “Acaricidal Effect on Larvae of Two-Spotted Red Spiders (Tetranychus telarius): A”
Acaricidal Effect of a Low Concentration of Acaricide on Larvae of Two-Spotted Red Spiders (Tetranychus telarius)
The same tests as those of Test Example 2 were repeated except that the concentration of the acaricide was changed to 12.5 ppm.

| SMILES | Acaricidal rate (%) [1] | Ovicidal rate (%) [2] | Killing rate [3] | acaricidal effect [4] |
| --- | --- | --- | --- | --- |
| CO/C=C(/C(=O)OC)c1c(C#Cc2ccc(Oc3cc(C(F)(F)F)cc(C(F)(F)F)c3)cc2)c(C)nn1C [Table 1-11] | 100% | 100% | 100% | 100% |
| CO/C=C(/C(=O)OC)c1c(C#Cc2cccc(C(F)(F)F)c2)c(C)nn1C [Table 1-2] | 100% | 100% | 60% | – |
| CO/C=C(/C(=O)OC)c1c(OCc2cccc(Oc3ccc(C(F)(F)F)cc3)c2)c(C)nn1C [Table 2-3] | 100% | 100% | 100% | – |
| CO/C=C(/C(=O)OC)c1c(C#Cc2cc(F)cc(Cl)c2)c(C)nn1C [Table 1-7] | 100% | 100% | 80% | 100% |
| CO/C=C(/C(=O)OC)c1c(C#Cc2cc(C(F)(F)F)cc(C(F)(F)F)c2)c(C(C)C)nn1C [Table 1-17] | 100% | 100% | 89% | 100% |
| CCc1nn(C)c(/C(=N\OC)C(=O)OC)c1CON=C(C)c1ccc(C(F)(F)F)cc1 [Table 3-73] | – | – | 100% | – |
| CCc1nn(C)c(/C(=C\OC)C(=O)OC)c1C#Cc1cc(C(F)(F)F)cc(C(F)(F)F)c1 [Table 1-14] | 100% | 100% | 74% | 100% |
| CCn1nc(C)c(C#Cc2cc(C(F)(F)F)cc(C(F)(F)F)c2)c1C(=COC)C(=O)OC [Table 1-21, Methyl α-[1-ethyl-3-methyl-4-{3,5-bis(trifluoromethyl)phenylethynyl}-5-pyrazole]-β-methoxyacrylate] | 100% | 100% | 100% | 100% |
| CO/C=C(/C(=O)OC)c1c(OCc2ccc(C(F)(F)F)cc2)c(C)nn1C [Table 2-5] | 100% | 100% | 90% | – |
| CO/C=C(/C(=O)OC)c1c(C#Cc2ccc(Oc3ccc(C(F)(F)F)cn3)cc2)c(C)nn1C [Table 1-13] | 100% | 100% | 100% | – |
| COC=C(C(=O)OC)c1c(C#Cc2ccc(C(F)(F)F)cc2)c(C)nn1C [Table 1-3, Methyl α-{1,3-dimethyl-4-(4-trifluoromethylphenylethynyl)-5-pyrazole}-β-methoxyacrylate] | 100% | 100% | 80% | 100% |
| CO/C=C(/C(=O)OC)c1c(OCc2ccc(C(C)(C)C)cc2)c(C)nn1C [Table 2-4] | 100% | 100% | 70% | – |
| CCn1nc(C)c(C#Cc2cc(C(F)(F)F)cc(C(F)(F)F)c2)c1/C(=C/OC)C(=O)OC [Table 1-22] | 100% | 100% | 90% | 100% |
| CO/C=C(/C(=O)OC)c1c(C#Cc2cc(F)cc(F)c2)c(C)nn1C [Table 1-8] | 100% | 100% | 100% | 100% |
| CO/C=C(/C(=O)OC)c1c(OCc2cc(C(F)(F)F)cc(C(F)(F)F)c2)c(C)nn1C [Table 2-1] | 100% | 100% | 87% | 100% |
| CCc1nn(C)c(/C(=N\OC)C(=O)OC)c1CON=C(C)c1cccc(OC(F)F)c1 [Table 3-76] | – | – | 100% | – |
| CO/C=C(/C(=O)OC)c1c(CON=C(C)c2ccc(OC(F)(F)F)cc2)c(C)nn1C [Table 3-101] | 100% | 100% | 100% | – |
